# Test results taken from patent US12234299B2, “Peptides for inducing bacteriocin synthesis and methods to identify and/or select and/or optimize the same” (SYNGULON S.A., priority 2018, dated 2025).
# B1: Ent35-MccV: hybrid bacteriocin: N-terminal glycine, Enterocin CRL35, a linker comprising three glycines, and a C-terminal Microcin V (protein)
# chain: GKYYGNGVSCNKKGCSVDWGRAIGIIGNNSAANLATGGAAGWKSGGGASGRDIAMAIGTLSGQFVAGGIGAAAGGVAGGAIYDYASTHKPNPAMSPSGLGGTIKQKPEGIPSEAWNYAAGRLCNWSPNNLSDVCL
# modifications: Hybrid bacteriocin Ent35-MccV
# notes: hybrid bacteriocin: N-terminal glycine, Enterocin CRL35, a linker comprising three glycines, and a C-terminal Microcin V
# Assays:
# [1] = system: sptA promoter (PsptA), ScuR/SarF system; test: Luciferase (luxAB) promoter activity of PsptA with exogenous synthetic peptides; format: cell-based, Streptococcus salivarius HSISS4; details: for Maximal activity of PsptA exposed to sBI7 mutant peptides, low concentration: 0.001 μM (1 nM) peptide, FIG. 3C; for Maximal activity of PsptA exposed to sBI7 mutant peptides, high concentration: 1 μM peptide, FIG. 3E
# Protocol: (§1) Overnight precultures were diluted at a final OD600 of 0.05. A volume of 300 μl of culture samples was incubated in the wells of a sterile covered white microplate with a transparent bottom (Greiner, Alphen a/d Rijn, The Netherlands) for 75 min at 37° C. and then supplemented with synthetic peptides (1 μM, except if otherwise stated) or DMSO, and xylose where required. Growth (OD600) and luciferase (Lux) activity (expressed in relative light units) was monitored at 10 min intervals during 24 h in a multi-wells plate reader (Hidex Sense, Hidex, Turku, Finland) as previously described (Fontaine et al., 2013).
# ScuR = test: Mobility shift assay (EMSA) of promoter probes with purified ScuR and synthetic peptide; format: binding, Streptococcus salivarius; details: ScuR 4 μM; peptide 2:2 dilutions from 20 μM; FIG. 10B
# Protocol: All double-stranded DNA fragments (30 or 40 bp) were obtained from annealing of single-stranded Cy3-labelled (at 5′ end) and unlabeled oligonucleotides. Typically, a gel shift reaction (20 μl) was performed in a binding buffer (20 mM Tris-HCl pH 8.0, 150 mM NaCl, 1 mM EDTA, 1 mM DTT, 10% glycerol, 1 mg ml-1 BSA) and contained 150 ng labelled probe and […] StrepTag proteins. When necessary, […] of ComS peptides (unless otherwise stated) are added. The reaction is incubated at 37° C. for 10 min prior to loading of the samples on a native TBE 5% gel. The gel is next subjected to 80 V for approximately 1 h in TBE buffer. DNA complexes were detected by fluorescence on the Ettan DIGE Imager with bandpass excitation filters (nm): 540/25 (Cy3) or 635/30 (Cy5) and bandpass emission filters: 595/25 (Cy3) or 680/30 (Cy5) (GE Healthcare, Waukesha, WI).
# The PCR-amplified scuR-StrepTag and gene sarF-StrepTag were cloned into the pBAD-comR-ST vector (see supplemental information). The ComR-StrepTag, ScuR-StrepTag and SarF-StrepTag recombinant proteins were overproduced in E. coli and purified as previously described (Fontaine et al., 2013) in standard native conditions on Strep-Tactin agarose beads (IBA).
# sptA promoter (PsptA) = test: PsptA-luxAB activity with xylose-induced intracellularly expressed peptides; format: cell-based, Streptococcus salivarius
# Excerpt: (§2) To generate the two DNA libraries encoding randomized sequence of small peptides, we performed overlapping PCRs to graft fragments encompassing the follow features: (1) a 5′ recombination arm (for the ectopic tRNA^ser locus); (2) the xylR gene that codes for the xylose responsive regulator; (3) either Pxyl1 (library I) or Pxyl2 (library II) translationally-fused to a 12 codon long gene, for which the last 7 are randomized; (4) the spec gene; (5) a 3′ recombination arm (for the ectopic tRNA^ser locus). To obtain the randomized DNA stretch, we used a 78 nucleotide long primer degenerated on 21 contiguous positions. Next, we transformed these two libraries in strains containing the sptA promoter translationally-fused to the cat gene (chloramphenicol resistance) in which the associated spec gene was excised by the previously described cre-lox method. The initial background of these strains were either a comR-overexpressing (Pxyl1-comR) or a salivaricin-deprived (Δslv5) strain. We plated transformed cells on solid medium supplemented with xylose (either 0.1 or 1%), chloramphenicol ([…]) and spectinomycin ([…]) and grew overnight. We restreaked single colonies on fresh chloramphenicol and spectinomycin solid medium supplemented or not with xylose.
# as §1
# [2] = system: sptA promoter (PsptA) fused to cat, ScuR/SarF; test: Randomized peptide screen (PsptA-cat, chloramphenicol resistance on xylose); format: cell-based, Streptococcus salivarius; details: xylose 0.1 or 1%; PsptA-cat reporter
# Excerpt: as §2
# Candida species = details: Shekh and Roy (2012); cited from earlier work
# [3] = system: fungal microbial organism; details: literature; cited from earlier work
# [4] = system: bacteriocin gene promoters (salivaricin promoters); test: Luciferase (luxAB) activity of bacteriocin gene (salivaricin) promoters; format: cell-based, Streptococcus salivarius HSISS4; details: 1 μM; FIG. 7
# Protocol: as §1
# [5] = system: pathogenic Gram-positive and Gram-negative bacteria; details: Acuna et al. (2012); cited from earlier work
molecule,measurement,setting,value
LAFWDSLG [Leu-Ala-Phe-Trp-Asp-Ser-Leu-Gly],induction of the sptA promoter in vivo,"[1]; 1 μM, FIG. 10A",able to induce the sptA promoter in vivo
same,ScuR binding to PsptA probe,ScuR,more intense
LAFWDSLGLLL [LAFWDSLG with a triple leucine extension at the C-terminus (precursor peptide)],induction of the sptA promoter in vivo,"[1]; 1 μM, FIG. 10A",able to induce the sptA promoter in vivo
same,PsptA induction of the longer peptide relative to the shorter one,"[1]; 1 μM, induction magnitude comparable to sBI7, FIG. 10A",much more active at 1 μM concentration than the shorter one
same,ScuR binding to PsptA probe,ScuR,requires extreme concentration
"MIAILPFWLILG [BI7, genome-encoded screen peptide]",xylose-driven PsptA activity in comR or sarF deletion backgrounds,"sptA promoter (PsptA); 0.1% xylose, FIG. 2D",neither comR nor sarF deletion has a dramatic effect
same,xylose-driven PsptA activity in scuR deletion background,"sptA promoter (PsptA); 0.1% xylose, FIG. 2D",annihilates both xylose induction and basal leaky expression
"MIAILRPH [BM1, irrelevant genome-encoded peptide, negative control clone, reference compound]",growth on chloramphenicol with vs without xylose,[2],xylose-independent growth
same,potentiation of PsptA-luxAB promoter activity by xylose addition,"sptA promoter (PsptA); xylose 0.1% or 1% vs mock, FIG. 2B",no effect
WLPPAGLLGRCGRWFRPWLLWLQ SGAQY KWLGNLFGLGPK (WLPPAGLLGRCGRWFRPWLLWLQSGAQYKWLGNLFGLGPK; Enterococcus faecalis peptide),neutralizing activity against Candida species,Candida species,neutralizing activity against Candida species
botrycidin AJ1316,antifungal activities,[3],antifungal activities
"sBI7^G→A: sBI7 variant, C-terminal glycine substituted by alanine (LPFWLILA)","Maximal activity of PsptA exposed to sBI7 mutant peptides, low concentration",[1],decreases the PsptA response
same,"Maximal activity of PsptA exposed to sBI7 mutant peptides, high concentration",[1],activate Pcat at a similar range than the WT sBI7 peptide
same,Maximal activity of salivaricin (bacteriocin gene) promoters exposed to mutant peptides,[4],low to high activation disability
"sBI7^W→A: sBI7 variant, ultra-conserved tryptophan substituted by alanine (LPFALILG)","Maximal activity of PsptA exposed to sBI7 mutant peptides, low concentration",[1],neither alanine (sBI7^W→A) nor phenylalanine (sBI7^W→F) variants sustains luciferase transcription
same,Maximal activity of salivaricin (bacteriocin gene) promoters exposed to mutant peptides,[4],total inefficacy
"sBI7^W→F: sBI7 variant, ultra-conserved tryptophan substituted by phenylalanine (LPFFLILG)","Maximal activity of PsptA exposed to sBI7 mutant peptides, low concentration",[1],neither alanine (sBI7^W→A) nor phenylalanine (sBI7^W→F) variants sustains luciferase transcription
same,"Maximal activity of PsptA exposed to sBI7 mutant peptides, high concentration",[1],activate Pcat at a similar range than the WT sBI7 peptide
same,Maximal activity of salivaricin (bacteriocin gene) promoters exposed to mutant peptides,[4],low to high activation disability
B1,antimicrobial activity,[5],displays antimicrobial activity against pathogenic Gram-positive and Gram-negative bacteria
